In patent publication US8791155B2, “Chroman derivatives” (Edison Pharmaceuticals, Inc., priority 2003, dated 2014):

What was measured:
[1] = system: dopaminergic neuronal cell line; experiment: High glutamate-induced oxidative stress assay (HGOS); format: cell-based; details: Mus musculus; 30 mM glutamate, 16 hrs; read-out: EC50, protection against HGOS cell injury and cell death
Outline: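 Mouse dopaminergic cells were grown 72 h at 33° C, washed into HBSS, then exposed to compounds in glucose-free DMEM with 1 mM glucose and 30 mM glutamate for 16 h at 37° C. Viability was read as Cell Tracker Green fluorescence at 485/538 nm after 30 min of 5 μM dye loading.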

FRDA fibroblasts = experiment: FRDA fibroblast assay for protection from oxidative stress (BSO); format: cell-based; details: Homo sapiens, preincubation 24 h before 1 mM BSO, read-out: EC50, reduced cell death in FRDA fibroblasts compared to untreated FRDA fibroblasts
From the text: A cellular assay using FRDA-patient derived fibroblasts (as described by Jauslin, M L et al, Human Molecular Genetics 11; 3055-3063 (2002)); was used to determine the protective effects of the test compounds by analyzing survival of dermal fibroblasts taken from FRDA patients and unaffected normal donors under conditions of partial GSH depletion. Exposure of FRDA fibroblasts to BSO (L-buthionine (S,R)-sulfoximine) under conditions of restricted selenium causes depletion of cellular glutathione (GSH) and severe plasma membrane damage leading to cell death. Preincubation with the test compounds before the addition of BSO was used to determine if they could protect FRDA cells from BSO-mediated cell death.
Primary fibroblasts were derived from donors with a molecular diagnosis of FRDA and control donors with no mitochondria) disease. Lines F2, C2 and C3 were obtained from Coriell Cell Repositories (Camden, N.J., USA; catalog nos GM04078, GM 08402 and GM08399, respectively). All cell types were diagnosed at the molecular level for intronic GAA triplet repeat length in the frataxin gene using a PCR-based method, according to methods known in the art. […] The cells were seeded in 96-well plates at a density of 4000 cells per 100 pI in growth medium consisting of 25% (v/v) M199 EBS and 64% (v/v) MEM EBS without phenol red (Bioconcept, Allschwil, Switzerland) supplemented with 10% (v/v) fetal calf serum (PAA Laboratories, Linz, Austria), 100 U/ml penicillin, 100 μg/ml streptomycin (PAA Laboratories, Linz, Austria), 10 μg/ml insulin (Sigma, Buchs, Switzerland), 10 ng/ml EGF (Sigma, Buchs, Switzerland), 10 ng/ml bFGF (PreproTech, Rocky Hill, N.J., USA) and 2 mM glutamine (Sigma, Buchs, Switzerland). The cells were incubated in the presence of the various test compounds for 24 h before addition of 1 mM BSO (L-buthionine (S,R)-sulfoximine).
Cell viability was measured after the first signs of toxicity appeared in the BSO-treated controls (typically after 16-48 h). The cells were stained for 60 min at room temperature in PBS with 1.2 μm calceinAM and 4 pm ethidium homodimer (Live/Dead assay, Molecular Probes, Eugene, Oreg., USA). Fluorescence intensity was measured with a Gemini Spectramax XS spectrofluorimeter (Molecular Devices, Sunnyvale, Calif., USA) using excitation and emission wavelengths of 485 and 525 nm, respectively.

Structure (SMILES)	EC50 [1] [µM]	EC50 (FRDA fibroblasts) [µM]
COC(=O)c1ccc(-c2c(O)c(C)c(C)c3c2CCC(C)(C)O3)cc1 [4-(6-Hydroxy-2,2,7,8-tetramethyl-chroman-5-yl)-benzoic acid methyl ester]	< 5	
CC1=NN(c2ccccc2)C(=O)C1C(CCC1(C)CCc2cc(O)c(C)c(C)c2O1)C1C(=O)N(c2ccccc2)N=C1C (centres unmarked) [1-(6-Hydroxy-2,7,8-trimethyl-chroman-2-yl)-3-bis-(5-methyl-2-phenyl-2,4-dihydro-pyrazol-3-one-4-yl)-propane]	< 5	0.01 to 6
C=CCSCc1c(O)c(C)c(C)c2c1CCC(C)(C)O2 [5-Allylsulfanylmethyl-2,2,7,8-tetramethyl-chroman-6-ol]	< 5	0.01 to 6
Cc1c(O)cc2c(c1C)OC(C)(CC/C=C1\SC(=O)NC1=O)CC2 (centres unmarked) [5-[3-(6-Hydroxy-2,7,8-trimethyl-chroman-2-yl)-propylidene]-thiazolidine-2,4-dione]	< 5	0.01 to 6
Cc1c(C)c2c(c(C)c1O)CCC(C)(C=C(Br)Br)O2 (centres unmarked) [2-(2,2-Dibromo-vinyl)-2,5,7,8-tetramethyl-chroman-6-ol]	< 5	
